Data published in patent US6153653A, “Choline compositions and uses thereof” (Protarga, Inc., priority 1997, dated 2000).
Several values for one entry are separate records, joined by “and”; a condition that tells them apart may be missing. Equal values may be shown once. Entries after “also recorded” stand apart in the source; their conditions may differ.

Tests used:
[1] = cited from earlier work
[2] = in vivo; cited from earlier work
Solubility = assay type: physicochemical
Stability = assay type: physicochemical; conditions: for Stability on exposure in the air (in words): exposed in the air
[3] = system: locomotor activity of mice; assay: Locomotor activity (locomotor depression) study, Digiscan chambers; assay type: in vivo, male Swiss-Webster mice (Hsd:ND4)
Protocol: A dose-response study of DHA-choline-induced locomotor depression was conducted using 40 Digiscan locomotor activity testing chambers (40.5×40.5×30.5 cm) housed in sets of two, within sound attenuating chambers. A panel of infrared beams (16 beams) and corresponding photo detectors were located in the horizontal direction along the sides of each activity chamber. A 7.5W incandescent light above each chamber provided dim illumination. Fans provided an 80-dB ambient noise level within the chamber. Separate groups of 8 non-habituated male Swiss-Webster mice (Hsd:ND4, aged 2-3 mo.) were injected via the intraperitoneal route (i.p.) with either vehicle or DHA-choline (0.5, 2.5, 5, 10, 20 or 40 mg/kg), 20 minutes prior to locomotor activity testing. In all studies, the total distance (cm traversed in the horizontal plane) was measured for 2 hours within 10 min periods.
The period 0-30 min was selected for analysis of dose-response data because this is the time period in which DHA-choline produced maximal effects. The mean average distance per 10 min for this 30 min period were fit to a linear function of log, dose of the descending portion of the dose-effect curve (0.5 to 40 mg/kg dose range).

[4] = system: MCA occlusions of rat brain; assay: Middle cerebral artery occlusion-reperfusion stroke model, infarct by triphenyltetrazolium chloride staining; assay type: in vivo; conditions: for Infarct volume (% of control non-occluded side of brain), Average: vehicle average 35.5
Protocol: Two sets of experiments were carried out. In the first set, rats were administered with 50 mg/kg of DHA-choline i.p. at 30 minutes prior to occlusion of the middle cerebral artery of the left side of the brain using a standard highly reproducible animal model of stroke (Karpiak et al., J. Neurosci. Res. 30:512-520, 1991). Occlusion of the middle cerebral artery inhibits blood flow to a major portion of the left cortical and subcortical regions of the brain. After a two hour period, the occluded blood vessel was opened to allow reperfusion of the brain, and anesthesia was terminated. Each animal received additional doses of 50 mg/kg of DHA-choline 24 and 48 hours later.
The animals were sacrificed, perfused with formalin fixative, brains were sliced into seven 2 mm thick coronal sections, and stained with triphenyltetrazolium chloride (Watson et al., J. Neurosci. Methods 53:203-208, 1994). In this test, tissue that contains intact mitochondria stains red, whereas dead tissue with damaged mitochondria picks up no stain and remains white. Each unstained area on the left side of a section was measured and compared to the total area of the control non-occluded right side of the same section of the brain. The area of damaged (white) brain tissue cells was calculated as a percent of the intact right side of a section. […] (n=5 per group.)
In the second set of experiments (n=5), the identical occlusion-reperfusionrat model was used; only the time of administration of the drug was changed. DHA-choline was injected i.p. at a dose of 50 mg/kg at one hour after the beginning of the reperfusion, i.e., at three hours after the initiation of the stroke event. Controls (n=5) received an injection of the vehicle instead of the drug according to the same protocol.

[5] = relative to tPA; cited from earlier work
[6] = system: animal models, clinical trials, models of aging; conditions: cited from earlier work
[7] = 50 mg/kg i.p. at 30 min prior to occlusion

Compound: CC/C=C\C/C=C\C/C=C\C/C=C\C/C=C\C/C=C\CCC(=O)O [DHA, cis-docosahexaenoic acid]
- Stability in the presence of oxygen (in words) [1]: can be unstable in the presence of oxygen
- crossing the blood-brain barrier (in words) [2]: unusually effective in crossing the blood-brain barrier

Compound: CC/C=C\C/C=C\C/C=C\C/C=C\C/C=C\C/C=C\CCC(=O)OCCN(C)C [2-dimethylaminoethyl docosahexaenoate]
- Solubility (solvents, in words) (Solubility): soluble in EtOAc, Et2 O, CH2 Cl2, CHCl3, EtOH insoluble in H2 O
- Stability on exposure in the air (in words) (Stability): turns dark when exposed in the air for several days

Compound: C[N+](C)(C)CCO [choline]
- crossing the blood-brain barrier (in words) [2]: cross the blood-brain barrier

Compound: CC/C=C\C/C=C\C/C=C\C/C=C\C/C=C\C/C=C\CCC(=O)OCC[N+](C)(C)C [DHA-choline, docosahexaenoyl choline iodide]
- one-way analysis of variance on total distance/10 min, F(6,49) ([3]; 0-30 min, overall effect): 10.5
- time period in which maximal effects were produced ([3]; i.p., after 20 min pretreatment): 0 to 30 min
- decrease in number of dead cells [4, 7]: about 50%
- Infarct volume (% of control non-occluded side of brain), individual animals ([4]; 50 mg/kg i.p. at 30 min prior to occlusion, Group No. 1 to 4): 22 % of control non-occluded side of brain and 19 % of control non-occluded side of brain and 16 % of control non-occluded side of brain and 20 % of control non-occluded side of brain
- Infarct volume (% of control non-occluded side of brain), Average [4, 7]: 19.3 % of control non-occluded side of brain
- Infarct volume (% of control non-occluded side of brain), individual animals ([4]; 50 mg/kg i.p. at 3 hours after occlusion, Group No. 1 to 5): 15 % of control non-occluded side of brain and 17 % of control non-occluded side of brain and 25 % of control non-occluded side of brain and 21 % of control non-occluded side of brain and 20 % of control non-occluded side of brain
- Infarct volume (% of control non-occluded side of brain), Average ([4]; 50 mg/kg i.p. at 3 hours after occlusion): 19.6 % of control non-occluded side of brain
- decrease in infarct volume ([4]; 50 mg/kg i.p. at three hours after initiation of stroke (one hour after beginning of reperfusion)): approximately 50%
- Solubility (solvents, in words) (Solubility): soluble in CH2 Cl2, CHCl3, EtOAc, EtOH insoluble in hexanes, Et2 O
- Stability on exposure in the air (in words) (Stability): exposed in the air for 5 days showed that the compound had not decomposed; also recorded: if it is exposed in the air for too long will decompose
- Stability on neutral alumina (in words) (Stability; purification on neutral alumina, 1H NMR): will result in other peaks on ^1 H NMR

Compound: Nc1ccn([C@@H]2O[C@H](CO)[C@@H](O)[C@H]2O)c(=O)n1 [cytidine]
- crossing the blood-brain barrier (in words) [2]: cross the blood-brain barrier

Compound: tPA conjugated to polyethylene glycol: conjugation of tPA to polyethylene glycol (EP-A304,311)
- clearance rate (in words) [5]: reduce the clearance rate of tPA

Compound: C[N+](C)(C)CCOP(=O)(O)OP(=O)([O-])OC[C@H]1O[C@@H](n2ccc(N)nc2=O)[C@H](O)[C@@H]1O [CDP-choline, Cytidine 5'-diphosphocholine]
- neuroprotective effect; memory and learning deficits (in words) [6]: neuroprotective effect in animal models and in clinical trials; also recorded: improves memory and learning deficits in models of aging
- release on administration (in words) [2]: choline and cytidine are released into the systemic circulation
